Publication PMC11207571, “Applicability of MDR1 Overexpressing Abcb1KO-MDCKII Cell Lines for Investigating In Vitro Species Differences and Brain Penetration Prediction” (Pharmaceutics, 2024)

Columns and labels:
cynomolgus monkey Mdr1 [1] = biological target: T1, cynomolgus monkey Mdr1 (Macaca fascicularis, UniProt Q8HZQ6); assay: Bidirectional transport assay, efflux ratio in Abcb1KO-MDCKII cyMDR1 cells; conditions: cynomolgus monkey, pH 7.4
Experimental: (§1) Eluent A consisted of 0.1% formic acid in water, eluent B consisted of 0.1% formic acid in acetonitrile. Then, 10 µL samples were injected into the HPLC-MS/MS system. Mass spectrometric detection was performed in SRM mode, and ion transitions for each analyte were optimized during method development. Samples were analyzed in pools, with each pool containing three to four analytes.

mouse Mdr1a [2] = biological target: T2, mouse Mdr1a (Mus musculus, UniProt P21447); assay: Inhibition of 3H-digoxin or 3H-quinidine bidirectional transport in mMDR1 cells; type: cell-based; parameters: mouse Mdr1a (NM_011076.3); expressed in transfected cells; host or cells: Abcb1KO-MDCKII (canine kidney, endogenous Abcb1 knocked out), transduced, single-cell clone; conditions: IC50 from ER
T2 sequence (P21447 whole entry): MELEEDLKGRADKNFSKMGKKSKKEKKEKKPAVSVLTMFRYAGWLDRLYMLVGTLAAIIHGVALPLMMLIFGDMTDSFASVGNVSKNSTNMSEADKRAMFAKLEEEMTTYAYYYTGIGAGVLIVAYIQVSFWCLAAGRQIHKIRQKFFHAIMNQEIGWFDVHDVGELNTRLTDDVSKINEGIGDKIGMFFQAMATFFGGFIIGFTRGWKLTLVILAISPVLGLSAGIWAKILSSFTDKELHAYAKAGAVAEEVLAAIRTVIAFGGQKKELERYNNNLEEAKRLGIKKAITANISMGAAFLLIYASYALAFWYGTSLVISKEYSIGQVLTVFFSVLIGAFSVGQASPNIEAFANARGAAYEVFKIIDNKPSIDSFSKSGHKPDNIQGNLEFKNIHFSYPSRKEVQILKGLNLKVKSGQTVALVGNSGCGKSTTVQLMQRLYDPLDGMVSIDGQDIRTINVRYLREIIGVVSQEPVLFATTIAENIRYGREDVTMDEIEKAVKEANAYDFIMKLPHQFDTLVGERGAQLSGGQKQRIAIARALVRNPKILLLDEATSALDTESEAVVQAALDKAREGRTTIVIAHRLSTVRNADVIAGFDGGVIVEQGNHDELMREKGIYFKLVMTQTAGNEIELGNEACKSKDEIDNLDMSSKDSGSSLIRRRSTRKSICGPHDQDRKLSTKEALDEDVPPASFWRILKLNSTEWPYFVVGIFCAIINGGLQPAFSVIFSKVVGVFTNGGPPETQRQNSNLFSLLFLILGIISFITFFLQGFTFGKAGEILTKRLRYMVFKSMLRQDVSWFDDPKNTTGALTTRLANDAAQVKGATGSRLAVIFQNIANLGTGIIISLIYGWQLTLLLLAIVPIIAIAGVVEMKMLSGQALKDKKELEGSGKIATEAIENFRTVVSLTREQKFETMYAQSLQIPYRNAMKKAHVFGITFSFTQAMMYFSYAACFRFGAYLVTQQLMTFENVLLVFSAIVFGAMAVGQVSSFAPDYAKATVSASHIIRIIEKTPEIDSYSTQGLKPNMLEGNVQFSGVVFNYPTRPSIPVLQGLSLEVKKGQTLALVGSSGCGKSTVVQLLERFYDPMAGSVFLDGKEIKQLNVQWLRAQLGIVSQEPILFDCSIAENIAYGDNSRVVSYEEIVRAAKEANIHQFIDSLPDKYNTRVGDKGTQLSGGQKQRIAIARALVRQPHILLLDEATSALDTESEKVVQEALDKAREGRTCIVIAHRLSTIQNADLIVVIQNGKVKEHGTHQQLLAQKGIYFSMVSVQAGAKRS

human MDR1 [3] = biological target: T3, human MDR1 (Homo sapiens, UniProt P08183); assay: Inhibition of 3H-digoxin or 3H-quinidine bidirectional transport in hMDR1 cells; conditions: IC50 from ER
T3 sequence (P08183 whole entry): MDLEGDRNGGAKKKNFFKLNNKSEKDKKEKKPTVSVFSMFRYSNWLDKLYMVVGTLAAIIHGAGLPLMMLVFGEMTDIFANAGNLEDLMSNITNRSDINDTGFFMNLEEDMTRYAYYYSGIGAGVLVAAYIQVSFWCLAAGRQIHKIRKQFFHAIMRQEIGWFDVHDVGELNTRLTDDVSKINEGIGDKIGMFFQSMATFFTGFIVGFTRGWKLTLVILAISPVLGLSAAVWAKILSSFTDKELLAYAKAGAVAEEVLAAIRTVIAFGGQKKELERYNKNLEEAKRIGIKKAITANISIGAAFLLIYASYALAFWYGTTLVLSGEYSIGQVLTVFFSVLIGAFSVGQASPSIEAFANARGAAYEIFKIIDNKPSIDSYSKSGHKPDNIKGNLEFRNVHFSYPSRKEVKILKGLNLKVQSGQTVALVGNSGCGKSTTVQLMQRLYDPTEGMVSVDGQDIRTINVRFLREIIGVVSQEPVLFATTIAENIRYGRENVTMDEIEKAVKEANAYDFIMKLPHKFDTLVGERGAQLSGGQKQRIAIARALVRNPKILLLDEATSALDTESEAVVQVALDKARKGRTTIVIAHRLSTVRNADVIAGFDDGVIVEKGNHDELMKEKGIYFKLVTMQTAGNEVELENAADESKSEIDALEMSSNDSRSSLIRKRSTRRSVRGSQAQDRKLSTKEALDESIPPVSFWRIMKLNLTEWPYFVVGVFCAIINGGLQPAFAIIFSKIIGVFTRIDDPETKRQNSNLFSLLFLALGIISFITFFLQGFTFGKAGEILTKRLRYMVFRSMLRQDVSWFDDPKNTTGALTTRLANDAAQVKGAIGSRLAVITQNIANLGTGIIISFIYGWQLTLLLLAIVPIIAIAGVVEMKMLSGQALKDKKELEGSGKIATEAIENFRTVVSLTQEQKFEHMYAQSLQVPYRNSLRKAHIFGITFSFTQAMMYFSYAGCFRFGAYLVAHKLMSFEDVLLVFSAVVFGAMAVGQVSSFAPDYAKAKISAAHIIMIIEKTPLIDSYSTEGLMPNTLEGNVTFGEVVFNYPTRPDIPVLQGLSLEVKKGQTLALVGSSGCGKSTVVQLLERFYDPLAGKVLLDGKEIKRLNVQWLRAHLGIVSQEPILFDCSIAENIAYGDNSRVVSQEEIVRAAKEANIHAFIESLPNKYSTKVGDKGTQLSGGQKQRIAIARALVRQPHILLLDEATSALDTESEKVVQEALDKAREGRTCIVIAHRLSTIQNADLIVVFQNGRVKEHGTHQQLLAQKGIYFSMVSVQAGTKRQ

rat Mdr1a [4] = biological target: T4, rat Mdr1a (Rattus norvegicus, UniProt Q6PSM0); assay: Bidirectional transport assay, efflux ratio in Abcb1KO-MDCKII rMDR1 cells; conditions: rat, pH 7.4
T4 sequence (Q6PSM0 1-1272): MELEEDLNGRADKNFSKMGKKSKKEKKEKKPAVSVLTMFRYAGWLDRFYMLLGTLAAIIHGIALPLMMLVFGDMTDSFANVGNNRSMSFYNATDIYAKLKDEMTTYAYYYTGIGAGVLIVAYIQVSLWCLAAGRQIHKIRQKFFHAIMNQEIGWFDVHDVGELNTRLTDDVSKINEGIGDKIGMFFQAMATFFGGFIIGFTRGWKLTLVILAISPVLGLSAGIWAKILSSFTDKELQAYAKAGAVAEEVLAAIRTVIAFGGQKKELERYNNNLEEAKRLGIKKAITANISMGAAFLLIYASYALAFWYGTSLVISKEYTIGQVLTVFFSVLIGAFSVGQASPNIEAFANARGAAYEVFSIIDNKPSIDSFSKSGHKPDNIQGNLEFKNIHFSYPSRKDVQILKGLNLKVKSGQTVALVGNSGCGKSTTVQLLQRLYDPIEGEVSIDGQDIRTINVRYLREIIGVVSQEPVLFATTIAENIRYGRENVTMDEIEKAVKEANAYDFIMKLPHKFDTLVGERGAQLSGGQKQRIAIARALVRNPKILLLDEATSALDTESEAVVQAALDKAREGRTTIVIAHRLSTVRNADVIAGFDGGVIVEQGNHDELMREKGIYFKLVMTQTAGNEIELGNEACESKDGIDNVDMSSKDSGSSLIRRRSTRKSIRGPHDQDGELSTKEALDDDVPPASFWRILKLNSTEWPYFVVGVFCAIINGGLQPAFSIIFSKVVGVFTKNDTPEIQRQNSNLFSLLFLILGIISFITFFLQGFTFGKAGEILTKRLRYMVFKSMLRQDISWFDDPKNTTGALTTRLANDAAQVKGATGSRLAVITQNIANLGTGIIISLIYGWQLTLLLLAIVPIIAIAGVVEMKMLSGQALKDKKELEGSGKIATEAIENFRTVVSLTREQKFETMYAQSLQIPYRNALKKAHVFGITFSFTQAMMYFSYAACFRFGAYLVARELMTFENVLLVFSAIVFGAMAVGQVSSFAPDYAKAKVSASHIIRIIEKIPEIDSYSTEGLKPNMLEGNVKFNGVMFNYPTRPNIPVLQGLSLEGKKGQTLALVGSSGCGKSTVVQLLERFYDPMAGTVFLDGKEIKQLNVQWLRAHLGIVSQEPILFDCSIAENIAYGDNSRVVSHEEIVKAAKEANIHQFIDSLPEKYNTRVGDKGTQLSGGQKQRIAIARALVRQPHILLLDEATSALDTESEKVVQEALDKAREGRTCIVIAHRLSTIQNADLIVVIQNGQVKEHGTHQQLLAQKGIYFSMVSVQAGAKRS
Experimental: as §1

cynomolgus monkey Mdr1 [5] = biological target: T1, cynomolgus monkey Mdr1; assay: cell-based
human BCRP = biological target: T5, human BCRP (Homo sapiens, UniProt Q9UNQ0); assay: Bidirectional transport assay, efflux ratio in MDCKII-BCRP cells; conditions: human, pH 7.4
T5 sequence (Q9UNQ0 1-655): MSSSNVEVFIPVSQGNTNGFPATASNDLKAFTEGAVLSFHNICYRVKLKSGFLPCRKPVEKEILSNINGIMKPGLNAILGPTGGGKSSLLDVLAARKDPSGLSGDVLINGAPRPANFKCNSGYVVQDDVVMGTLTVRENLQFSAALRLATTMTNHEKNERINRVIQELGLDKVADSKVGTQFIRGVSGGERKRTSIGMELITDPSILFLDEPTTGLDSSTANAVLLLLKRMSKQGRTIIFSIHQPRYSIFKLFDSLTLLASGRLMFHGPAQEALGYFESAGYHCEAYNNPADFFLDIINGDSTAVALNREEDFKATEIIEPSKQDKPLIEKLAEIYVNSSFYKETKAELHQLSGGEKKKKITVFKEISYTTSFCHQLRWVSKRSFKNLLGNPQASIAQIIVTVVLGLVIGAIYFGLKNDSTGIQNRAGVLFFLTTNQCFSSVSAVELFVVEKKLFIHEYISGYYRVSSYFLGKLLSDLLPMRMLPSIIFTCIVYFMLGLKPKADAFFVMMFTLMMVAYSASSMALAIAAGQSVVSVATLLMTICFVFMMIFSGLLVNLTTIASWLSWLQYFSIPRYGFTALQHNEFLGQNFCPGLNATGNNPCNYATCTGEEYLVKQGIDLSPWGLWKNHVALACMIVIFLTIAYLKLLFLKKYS
Experimental: as §1

human MDR1 [6] = biological target: T3, human MDR1; assay: Bidirectional transport assay, efflux ratio in Abcb1KO-MDCKII hMDR1 cells; conditions: human, MDCK-MDR1, pH 7.4
Experimental: as §1

[7] = Bidirectional transport assay, efflux ratio in Abcb1KO-MDCKII-Mock control cells; conditions: dog, MDCK, pH 7.4
Experimental: as §1

rat Mdr1a [8] = biological target: T4, rat Mdr1a; assay: Inhibition of 3H-digoxin or 3H-quinidine bidirectional transport in rMDR1 cells; type: cell-based; parameters: rat Mdr1a (NM_133401.1); expressed in transfected cells; host or cells: Abcb1KO-MDCKII (canine kidney, endogenous Abcb1 knocked out), transduced, single-cell clone; conditions: IC50 from ER
mouse Mdr1a [9] = biological target: T2, mouse Mdr1a; assay: Bidirectional transport assay, efflux ratio in Abcb1KO-MDCKII mMDR1 cells; conditions: mouse, pH 7.4
Experimental: as §1

cynomolgus monkey Mdr1 [10] = biological target: T1, cynomolgus monkey Mdr1; assay: Inhibition of 3H-digoxin or 3H-quinidine bidirectional transport in cyMDR1 cells; conditions: 60 min, IC50 from ER; for IC50: Inhibition of quinidine transport IC50±SD, cyMDR1, probe 3H-quinidine 0.1 µM
[11] = Inhibition of digoxin transport IC50±SD, mMDR1, probe 3H-digoxin 1 µM, 120 min
[12] = Inhibition of quinidine transport IC50±SD, mMDR1, probe 3H-quinidine 1 µM, 60 min
[13] = Inhibition of digoxin transport IC50±SD, hMDR1, probe 3H-digoxin 1 µM, 120 min
[14] = Inhibition of quinidine transport IC50±SD, hMDR1, probe 3H-quinidine 1 µM, 60 min
[15] = Inhibition of digoxin transport IC50±SD, rMDR1, probe 3H-digoxin 1 µM, 120 min
[16] = Inhibition of quinidine transport IC50±SD, rMDR1, probe 3H-quinidine 1 µM, 30 min
[17] = probe 3H-quinidine 1 µM, 60 min

T1 sequence (Q8HZQ6 1-1283): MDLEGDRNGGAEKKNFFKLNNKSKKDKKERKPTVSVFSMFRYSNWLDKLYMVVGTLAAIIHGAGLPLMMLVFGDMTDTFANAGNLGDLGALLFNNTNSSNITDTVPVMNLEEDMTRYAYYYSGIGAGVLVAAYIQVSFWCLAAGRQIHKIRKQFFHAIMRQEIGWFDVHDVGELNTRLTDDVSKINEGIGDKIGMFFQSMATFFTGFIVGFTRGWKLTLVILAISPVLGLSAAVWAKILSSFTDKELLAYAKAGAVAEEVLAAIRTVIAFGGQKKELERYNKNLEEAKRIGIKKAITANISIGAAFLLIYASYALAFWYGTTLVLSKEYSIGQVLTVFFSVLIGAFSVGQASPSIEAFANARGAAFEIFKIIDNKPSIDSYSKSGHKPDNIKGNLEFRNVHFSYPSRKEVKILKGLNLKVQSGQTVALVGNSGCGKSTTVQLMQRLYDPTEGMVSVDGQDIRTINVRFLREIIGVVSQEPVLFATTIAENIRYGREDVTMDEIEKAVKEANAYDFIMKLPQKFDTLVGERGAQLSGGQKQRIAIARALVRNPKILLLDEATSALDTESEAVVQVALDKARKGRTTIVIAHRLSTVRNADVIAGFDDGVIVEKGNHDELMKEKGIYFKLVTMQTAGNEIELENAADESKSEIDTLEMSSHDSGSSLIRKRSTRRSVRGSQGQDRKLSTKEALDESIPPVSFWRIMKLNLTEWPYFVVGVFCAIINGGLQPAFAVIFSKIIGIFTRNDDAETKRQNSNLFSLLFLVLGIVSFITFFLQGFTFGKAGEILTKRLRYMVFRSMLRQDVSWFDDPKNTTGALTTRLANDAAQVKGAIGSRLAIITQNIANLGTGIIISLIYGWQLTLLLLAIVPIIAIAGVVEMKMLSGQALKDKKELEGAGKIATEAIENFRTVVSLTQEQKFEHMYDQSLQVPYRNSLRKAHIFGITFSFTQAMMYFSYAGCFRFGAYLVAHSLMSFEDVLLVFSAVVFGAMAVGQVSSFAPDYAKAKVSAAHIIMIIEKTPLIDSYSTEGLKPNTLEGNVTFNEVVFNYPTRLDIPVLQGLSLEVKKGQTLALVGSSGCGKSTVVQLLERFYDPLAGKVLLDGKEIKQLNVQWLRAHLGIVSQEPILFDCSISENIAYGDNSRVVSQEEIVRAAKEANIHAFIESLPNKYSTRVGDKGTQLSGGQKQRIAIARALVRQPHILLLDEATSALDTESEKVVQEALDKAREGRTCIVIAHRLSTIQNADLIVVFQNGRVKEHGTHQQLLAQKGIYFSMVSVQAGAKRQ

SMILES	IC50 (mouse Mdr1a [2]; [11])	IC50 (mouse Mdr1a [2]; [12])	IC50 (human MDR1 [3]; [13])	IC50 (human MDR1 [3]; [14])	IC50 (cynomolgus monkey Mdr1 [5])	IC50 (rat Mdr1a [8]; [15])	IC50 (rat Mdr1a [8]; [16])	IC50 (cynomolgus monkey Mdr1 [10])	also measured
COc1ccccc1OCCNCC(O)COc1cccc2[nH]c3ccccc3c12 (stereo not drawn) [Carvedilol]	2 ± 0.55 µM	1.64 ± 0.9 µM	19.1 ± 7.45 µM	0.41 ± 0.24 µM	1.55 ± 0.59 µM	4.22 ± 1 µM	1.01 ± 0.13 µM	1.02 ± 0.79 µM	efflux ratio at 120 min, 1 µM (cynomolgus monkey Mdr1 [1]): 1.12 ± 0.06; efflux ratio at 120 min, 1 µM (rat Mdr1a [4]): 2.13 ± 0.08; efflux ratio at 120 min, 1 µM (human BCRP): 2.38 ± 0.23; efflux ratio at 120 min, 1 µM (human MDR1 [6]): 14.5 ± 0.62; efflux ratio at 120 min, 1 µM [7]: 0.62 ± 0.04; efflux ratio at 120 min, 1 µM (mouse Mdr1a [9]): 1.94 ± 0.21
COc1cc2c(cc1OC)CN(CCc1ccc(NC(=O)c3cccc4c(=O)c5cccc(OC)c5[nH]c34)cc1)CC2 [Elacridar]	0.1 ± 0.07 µM	0.2 ± 0.04 µM	–	–	0.09 ± 0.03 µM	0.32 ± 0.15 µM	0.06 µM	0.11 ± 0.08 µM	–
CCOC(=O)C1=C(C)NC(C)=C(C(=O)OC)C1c1cccc(Cl)c1Cl (stereo not drawn) [Felodipine]	28.6 ± 7.95 µM	> 100 µM	–	–	12.4 ± 5.74 µM	> 100 µM	40.6 ± 7.71 µM	50.7 ± 19.7 µM	–
COC(=O)C1=C(C)NC(C)=C(C(=O)OC(C)C)C1c1cccc2nonc12 (stereo not drawn) [Isradipine]	5.28 ± 2.94 µM	19.3 ± 3.75 µM	> 50 µM	2.07 ± 1.28 µM	10.6 ± 4.73 µM	15.2 ± 2.84 µM	13.6 ± 9.37 µM	19.3 ± 5.76 µM	–
CCC(C)n1ncn(-c2ccc(N3CCN(c4ccc(OCC5COC(Cn6cncn6)(c6ccc(Cl)cc6Cl)O5)cc4)CC3)cc2)c1=O (stereo not drawn) [Itraconazole]	1.39 ± 0.5 µM	0.48 ± 0.11 µM	–	–	0.36 ± 0.19 µM	4.41 ± 1.05 µM	0.15 ± 0.07 µM	0.32 ± 0.12 µM	–
COCC(=O)O[C@]1(CCN(C)CCCc2nc3ccccc3[nH]2)CCc2cc(F)ccc2[C@@H]1C(C)C [Mibefradil]	7.15 ± 4.58 µM	–	–	–	4.84 ± 1.82 µM	7.42 ± 2.76 µM	1.11 ± 0.21 µM	3.61 ± 2.04 µM	–
CCOC(=O)C1=C(C)NC(C)=C(C(=O)OC)C1c1cccc([N+](=O)[O-])c1 (stereo not drawn) [Nitrendipine]	> 50 µM	15.7 ± 5.68 µM	> 50 µM	> 50 µM	3.15 ± 1.7 µM	4.02 ± 1.64 µM	6.34 ± 2.68 µM	17.5 ± 4.96 µM	–
C=C[C@H]1C[N@@]2CC[C@H]1C[C@@H]2[C@@H](O)c1ccnc2ccc(OC)cc12 [Quinidine]	15 ± 4.06 µM	–	–	–	–	2.93 ± 1.43 µM	–	–	–
CC(C)(C)NC(=O)[C@@H]1C[C@@H]2CCCC[C@@H]2CN1C[C@@H](O)[C@H](Cc1ccccc1)NC(=O)[C@H](CC(N)=O)NC(=O)c1ccc2ccccc2n1 [Saquinavir]	–	–	–	–	12.3 ± 5.44 µM	25 ± 11.4 µM	12.3 ± 5.02 µM	20.7 ± 7.67 µM	–
CCCc1nc2c(C)cc(-c3nc4ccccc4n3C)cc2n1Cc1ccc(-c2ccccc2C(=O)O)cc1 [Telmisartan]	2.6 ± 1.59 µM	2.28 ± 0.97 µM	15.2 ± 5.66 µM	1.81 ± 0.87 µM	4.06 ± 1.69 µM	11.6 ± 3.91 µM	2.72 ± 1.26 µM	1.55 ± 0.53 µM	efflux ratio at 120 min, 1 µM (cynomolgus monkey Mdr1 [1]): 3.18 ± 0.63; efflux ratio at 120 min, 1 µM (rat Mdr1a [4]): 2.65 ± 0.75; efflux ratio at 120 min, 1 µM (human BCRP): 12.2 ± 0.95; efflux ratio at 120 min, 1 µM [7]: 0.38 ± 0.06; efflux ratio at 120 min, 1 µM (mouse Mdr1a [9]): 2.2 ± 0.27
Cc1ccccc1C(=O)Nc1ccc(C(=O)N2CCCC(O)c3cc(Cl)ccc32)c(C)c1 (stereo not drawn) [Tolvaptan]	10.9 ± 1.46 µM	3.92 ± 0.87 µM	> 30 µM	1.28 ± 0.44 µM	6.68 ± 1.63 µM	8.79 ± 2.81 µM	4.14 ± 1.47 µM	5.11 ± 1.65 µM	–
CC[C@]1(O)C[C@@H]2CN(CCc3c([nH]c4ccccc34)[C@@](C(=O)OC)(c3cc4c(cc3OC)N(C)[C@H]3[C@@](O)(C(=O)OC)[C@H](OC(C)=O)[C@]5(CC)C=CCN6CC[C@]43[C@@H]65)C2)C1 [Vinblastine]	–	–	–	–	–	–	–	–	efflux ratio at 120 min, 1 µM (cynomolgus monkey Mdr1 [1]): 61.4 ± 7.47; efflux ratio at 120 min, 1 µM (rat Mdr1a [4]): 61.2 ± 5.31; efflux ratio at 120 min, 1 µM (human BCRP): 22.9 ± 4.47; efflux ratio at 120 min, 1 µM (human MDR1 [6]): 51.6 ± 5.3; efflux ratio at 120 min, 1 µM [7]: 1.32 ± 0.28; efflux ratio at 120 min, 1 µM (mouse Mdr1a [9]): 50.5 ± 6.89
CN(C)CCc1c[nH]c2ccc(C[C@H]3COC(=O)N3)cc12 [Zolmitriptan]	–	–	–	–	–	–	–	–	efflux ratio at 120 min, 1 µM (cynomolgus monkey Mdr1 [1]): 2.24 ± 0.22; efflux ratio at 120 min, 1 µM (rat Mdr1a [4]): 2.69 ± 0.16; efflux ratio at 120 min, 1 µM (human BCRP): 3.94 ± 0.25; efflux ratio at 120 min, 1 µM (human MDR1 [6]): 4.3 ± 0.26; efflux ratio at 120 min, 1 µM [7]: 0.97 ± 0.09; efflux ratio at 120 min, 1 µM (mouse Mdr1a [9]): 1.99 ± 0.16
O[C@@H](COc1cccc2ncccc12)CN1CCN([C@@H]2c3ccccc3[C@@H]3[C@H](c4ccccc42)C3(F)F)CC1 [Zosuquidar]	0.37 ± 0.13 µM	0.49 ± 0.26 µM	–	–	0.05 ± 0.02 µM	0.6 ± 0.29 µM	0.57 ± 0.21 µM	0.12 ± 0.09 µM	–
CC(C)(C)NCC(O)COc1ccc(NC(=O)NC2CCCCC2)cc1 (stereo not drawn) [talinolol]	–	–	–	–	–	–	–	–	Inhibition of digoxin transport IC50±SD, mMDR1 (mouse Mdr1a [2]; probe 3H-digoxin 1 µM, 120 min): no inhibition; Inhibition of quinidine transport IC50±SD, mMDR1 (mouse Mdr1a [2]; [17]): no inhibition; Inhibition of digoxin transport IC50±SD, hMDR1 (human MDR1 [3]; probe 3H-digoxin 1 µM, 120 min): no inhibition; Inhibition of quinidine transport IC50±SD, hMDR1 (human MDR1 [3]; [17]): no inhibition; Inhibition of digoxin transport IC50±SD, rMDR1 (rat Mdr1a [8]; probe 3H-digoxin 1 µM, 120 min): no inhibition; Inhibition of quinidine transport IC50±SD, rMDR1 (rat Mdr1a [8]; probe 3H-quinidine 1 µM, 30 min): no inhibition; Inhibition of quinidine transport IC50±SD, cyMDR1 (cynomolgus monkey Mdr1 [10]; probe 3H-quinidine 0.1 µM): no inhibition
